# Laboratory results taken from the supplement of paper PMC10627819.
# Tests used:
# [1] = test system: S. aureus DSM 20231; assay: fitness (endpoint OD595 vs no drug) (fraction); higher = more growth
# How it was run: (§1)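 Fitness expresses the optical density reached at the stationary-phase transition as a fraction of the robust mean of no-drug control wells. It is capped at 1. Measurements were OD595 every 30 min for 14 h at 37 °C after inoculation of 384-well plates at OD595 0.01 (30 µl, or 55 µl for S. pneumoniae), minus the first reading.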
# [2] = test system: S. aureus Newman; assay: as above
# How it was run: as §1
# [3] = test system: S. pneumoniae D39V; assay: as above
# How it was run: as §1
# [4] = test system: B. subtilis 168; assay: Bliss interaction score (quartile over a dose matrix) (fitness difference); higher = more antagonism (negative = synergy)
# How it was run: (§2)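 Each OD595 reading at entry into stationary phase was scaled to the robust mean of the untreated wells on its plate, with a ceiling of 1. These ratios define fitness, and single-drug fitness was inferred from combinations. The Bliss score compares observed fitness with the product-based expectation and is reported as quartiles across all replicate types, technical, biological and donor/recipient.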
# [5] = test system: S. aureus DSM 20231; assay: as above
# How it was run: as §2
# [6] = test system: S. aureus Newman; assay: as above
# How it was run: as §2
# [7] = test system: S. pneumoniae D39V; assay: as above
# How it was run: as §2
# [8] = first compound 0.125 µg/mL, partner 0.625 µg/mL
# [9] = first compound 0.125 µg/mL, partner 1.25 µg/mL
# [10] = first compound 0.125 µg/mL, partner 2.5 µg/mL
# [11] = first compound 0.25 µg/mL, partner 0.625 µg/mL
# [12] = first compound 0.25 µg/mL, partner 1.25 µg/mL
# [13] = first compound 0.25 µg/mL, partner 2.5 µg/mL
# [14] = first compound 0.5 µg/mL, partner 0.625 µg/mL
# [15] = first compound 0.5 µg/mL, partner 1.25 µg/mL
# [16] = first compound 0.5 µg/mL, partner 2.5 µg/mL
# [17] = first compound 342 µg/mL, partner 0.1875 µg/mL
# [18] = first compound 342 µg/mL, partner 0.375 µg/mL
# [19] = first compound 342 µg/mL, partner 0.75 µg/mL
# [20] = first compound 0.0625 µg/mL, partner 85.5 µg/mL
# [21] = first compound 0.0625 µg/mL, partner 171 µg/mL
# [22] = first compound 0.0625 µg/mL, partner 342 µg/mL
# [23] = first compound 0.125 µg/mL, partner 171 µg/mL
# [24] = first compound 0.125 µg/mL, partner 342 µg/mL
# 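Throughout, for Bliss interaction score (quartile over a dose matrix): first quartile when negative (synergy) and third quartile when positive (antagonism).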
# 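Throughout, for fitness (endpoint OD595 vs no drug): OD595 on entry to stationary phase over no-drug wells; at most 1.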
smiles,measurement,setting,value
CO/N=C(\C(=O)N[C@@H]1C(=O)N2C(C(=O)[O-])=C(C[N+]3(C)CCCC3)CS[C@H]12)c1csc(N)n1 [Cefepime] + Cc1ncc([N+](=O)[O-])n1CCO [Metronidazole],fitness,[1]; [8],0.981
same,fitness,[1]; [9],≥ 1
same,fitness,[1]; [10],≥ 1
same,fitness,[1]; [11],0.958
same,fitness,[1]; [12],≥ 1
same,fitness,[1]; [13],≥ 1
same,fitness,[1]; [14],0.925
same,fitness,[1]; [15],0.958
same,fitness,[1]; [16],0.928
same,fitness,[2]; [8],0.942
same,fitness,"[2]; first compound 0.125 µg/mL, partner 0.781 µg/mL",0.957
same,fitness,[2]; [9],0.922
same,fitness,"[2]; first compound 0.125 µg/mL, partner 1.562 µg/mL",0.914
same,fitness,[2]; [10],0.957
same,fitness,"[2]; first compound 0.125 µg/mL, partner 3.124 µg/mL",0.924
same,fitness,[2]; [11],0.855
same,fitness,"[2]; first compound 0.25 µg/mL, partner 0.781 µg/mL",0.854
same,fitness,[2]; [12],0.876
same,fitness,"[2]; first compound 0.25 µg/mL, partner 1.562 µg/mL",0.844
same,fitness,[2]; [13],0.814
same,fitness,"[2]; first compound 0.25 µg/mL, partner 3.124 µg/mL",0.83
same,fitness,[2]; [14],0.799
same,fitness,"[2]; first compound 0.5 µg/mL, partner 0.781 µg/mL",0.761
same,fitness,[2]; [15],0.752
same,fitness,"[2]; first compound 0.5 µg/mL, partner 1.562 µg/mL",0.731
same,fitness,[2]; [16],0.749
same,fitness,"[2]; first compound 0.5 µg/mL, partner 3.124 µg/mL",0.764
same,fitness,"[3]; first compound 0.007 µg/mL, partner 1.25 µg/mL",≥ 1
same,fitness,"[3]; first compound 0.007 µg/mL, partner 2.5 µg/mL",≥ 1
same,fitness,"[3]; first compound 0.007 µg/mL, partner 5 µg/mL",≥ 1
same,fitness,"[3]; first compound 0.0078 µg/mL, partner 1.073 µg/mL",0.998
same,fitness,"[3]; first compound 0.0078 µg/mL, partner 2.145 µg/mL",0.943
same,fitness,"[3]; first compound 0.0078 µg/mL, partner 4.29 µg/mL",0.988
same,fitness,"[3]; first compound 0.014 µg/mL, partner 1.25 µg/mL",≥ 1
same,fitness,"[3]; first compound 0.014 µg/mL, partner 2.5 µg/mL",≥ 1
same,fitness,"[3]; first compound 0.014 µg/mL, partner 5 µg/mL",≥ 1
same,fitness,"[3]; first compound 0.0155 µg/mL, partner 1.073 µg/mL",0.977
same,fitness,"[3]; first compound 0.0155 µg/mL, partner 4.29 µg/mL",0.968
same,fitness,"[3]; first compound 0.028 µg/mL, partner 1.25 µg/mL",0.957
same,fitness,"[3]; first compound 0.028 µg/mL, partner 2.5 µg/mL",0.964
same,fitness,"[3]; first compound 0.028 µg/mL, partner 5 µg/mL",0.912
same,fitness,"[3]; first compound 0.031 µg/mL, partner 1.073 µg/mL",0.939
same,fitness,"[3]; first compound 0.031 µg/mL, partner 2.145 µg/mL",0.9
same,fitness,"[3]; first compound 0.031 µg/mL, partner 4.29 µg/mL",0.942
same,Bliss interaction score,[4],0.0894
same,Bliss interaction score,[5],0.047
same,Bliss interaction score,[6],-0.0502
same,Bliss interaction score,[7],0.0181
CCN(CC)CCOC(=O)c1ccc(N)cc1 [Procaine] + CN[C@H](CC(C)C)C(=O)N[C@H]1C(=O)N[C@@H](CC(N)=O)C(=O)N[C@H]2C(=O)N[C@H]3C(=O)N[C@H](C(=O)N[C@H](C(=O)O)c4cc(O)cc(O)c4-c4cc3ccc4O)[C@H](O)c3ccc(c(Cl)c3)Oc3cc2cc(c3O[C@@H]2O[C@H](CO)[C@@H](O)[C@H](O)[C@H]2O[C@H]2C[C@](C)(N)[C@H](O)[C@H](C)O2)Oc2ccc(cc2Cl)[C@H]1O [Vancomycin],fitness,"[1]; first compound 85.5 µg/mL, partner 0.1875 µg/mL",0.969
same,fitness,"[1]; first compound 85.5 µg/mL, partner 0.375 µg/mL",0.999
same,fitness,"[1]; first compound 85.5 µg/mL, partner 0.75 µg/mL",0.953
same,fitness,"[1]; first compound 171 µg/mL, partner 0.1875 µg/mL",0.953
same,fitness,"[1]; first compound 171 µg/mL, partner 0.375 µg/mL",≥ 1
same,fitness,"[1]; first compound 171 µg/mL, partner 0.75 µg/mL",0.982
same,fitness,[1]; [17],0.883
same,fitness,[1]; [18],0.983
same,fitness,[1]; [19],≥ 1
same,fitness,[2]; [17],0.962
same,fitness,[2]; [18],0.999
same,fitness,[2]; [19],0.98
same,fitness,"[3]; first compound 85.5 µg/mL, partner 0.03125 µg/mL",≥ 1
same,fitness,"[3]; first compound 85.5 µg/mL, partner 0.0625 µg/mL",0.963
same,fitness,"[3]; first compound 85.5 µg/mL, partner 0.125 µg/mL",0.742
same,fitness,"[3]; first compound 85.5 µg/mL, partner 0.25 µg/mL, one replicate",0.0963
same,fitness,"[3]; first compound 85.5 µg/mL, partner 0.5 µg/mL, one replicate",0.0592
same,fitness,"[3]; first compound 171 µg/mL, partner 0.03125 µg/mL",0.978
same,fitness,"[3]; first compound 171 µg/mL, partner 0.0625 µg/mL",0.955
same,fitness,"[3]; first compound 171 µg/mL, partner 0.125 µg/mL",0.903
same,fitness,"[3]; first compound 171 µg/mL, partner 0.25 µg/mL, one replicate",0.383
same,fitness,"[3]; first compound 171 µg/mL, partner 0.5 µg/mL, one replicate",0.0925
same,fitness,"[3]; first compound 342 µg/mL, partner 0.03125 µg/mL",0.952
same,fitness,"[3]; first compound 342 µg/mL, partner 0.0625 µg/mL",0.921
same,fitness,"[3]; first compound 342 µg/mL, partner 0.125 µg/mL",0.907
same,fitness,"[3]; first compound 342 µg/mL, partner 0.25 µg/mL, one replicate",0.674
same,fitness,"[3]; first compound 342 µg/mL, partner 0.5 µg/mL, one replicate",0.148
same,Bliss interaction score,[4],0.0237
same,Bliss interaction score,[5],0.0492
same,Bliss interaction score,[6],0.0558
same,Bliss interaction score,[7],-0.0761
CC1(C)S[C@@H]2[C@H](NC(=O)[C@H](N)c3ccc(O)cc3)C(=O)N2[C@H]1C(=O)O [Amoxicillin] + CCN(CC)CCOC(=O)c1ccc(N)cc1 [Procaine],fitness,[1]; [20],0.455
same,fitness,[1]; [21],0.523
same,fitness,[1]; [22],0.523
same,fitness,"[1]; first compound 0.125 µg/mL, partner 85.5 µg/mL",0.423
same,fitness,[1]; [23],0.478
same,fitness,[1]; [24],0.495
same,fitness,"[1]; first compound 0.25 µg/mL, partner 85.5 µg/mL",0.0255
same,fitness,"[1]; first compound 0.5 µg/mL, partner 85.5 µg/mL, one replicate",0.0288
same,fitness,"[1]; first compound 0.5 µg/mL, partner 171 µg/mL, one replicate",0.0239
same,fitness,"[1]; first compound 0.5 µg/mL, partner 342 µg/mL, one replicate",0.0199
same,fitness,[2]; [20],0.862
same,fitness,[2]; [21],0.875
same,fitness,[2]; [22],0.861
same,fitness,[2]; [23],0.847
same,fitness,[2]; [24],0.861
same,fitness,"[2]; first compound 0.25 µg/mL, partner 171 µg/mL",0.841
same,fitness,"[2]; first compound 0.25 µg/mL, partner 342 µg/mL",0.811
same,fitness,"[3]; first compound 0.0008 µg/mL, partner 85.5 µg/mL",1
same,fitness,"[3]; first compound 0.0008 µg/mL, partner 171 µg/mL",0.989
same,fitness,"[3]; first compound 0.0008 µg/mL, partner 342 µg/mL",0.942
same,fitness,"[3]; first compound 0.0015 µg/mL, partner 85.5 µg/mL",0.985
same,fitness,"[3]; first compound 0.0015 µg/mL, partner 171 µg/mL",0.971
same,fitness,"[3]; first compound 0.0015 µg/mL, partner 342 µg/mL",0.987
same,fitness,"[3]; first compound 0.003 µg/mL, partner 85.5 µg/mL",0.918
same,fitness,"[3]; first compound 0.003 µg/mL, partner 171 µg/mL",0.93
same,fitness,"[3]; first compound 0.003 µg/mL, partner 342 µg/mL",0.992
same,fitness,"[3]; first compound 0.006 µg/mL, partner 85.5 µg/mL, one replicate",0.536
same,fitness,"[3]; first compound 0.006 µg/mL, partner 171 µg/mL, one replicate",0.524
same,fitness,"[3]; first compound 0.006 µg/mL, partner 342 µg/mL, one replicate",0.519
same,Bliss interaction score,[4],-0.036
same,Bliss interaction score,[5],-0.0798
same,Bliss interaction score,[6],-0.0462
same,Bliss interaction score,[7],0.0262
